Reference: publication PMC9851200, “Multiparameter phenotypic screening for endogenous TFEB and TFE3 translocation identifies novel chemical series modulating lysosome function” (Autophagy, 2022)

Experiments:
Type in all cases: binding
[1] = target: kinases (KINOMEscan panel) (Homo sapiens, UniProt Q15349)
[2] = target: kinases (KINOMEscan panel) (Homo sapiens, UniProt Q99683)
[3] = target: kinases (KINOMEscan panel) (Homo sapiens, UniProt Q8WU08)
[4] = target: kinases (KINOMEscan panel) (Homo sapiens, UniProt Q9H093)
[5] = target: kinases (KINOMEscan panel) (Homo sapiens, UniProt P31152)
[6] = target: kinases (KINOMEscan panel) (Homo sapiens, UniProt Q8TD08)
Sequence of kinases (KINOMEscan panel) (Homo sapiens, UniProt Q8TD08) (Q8TD08 whole entry): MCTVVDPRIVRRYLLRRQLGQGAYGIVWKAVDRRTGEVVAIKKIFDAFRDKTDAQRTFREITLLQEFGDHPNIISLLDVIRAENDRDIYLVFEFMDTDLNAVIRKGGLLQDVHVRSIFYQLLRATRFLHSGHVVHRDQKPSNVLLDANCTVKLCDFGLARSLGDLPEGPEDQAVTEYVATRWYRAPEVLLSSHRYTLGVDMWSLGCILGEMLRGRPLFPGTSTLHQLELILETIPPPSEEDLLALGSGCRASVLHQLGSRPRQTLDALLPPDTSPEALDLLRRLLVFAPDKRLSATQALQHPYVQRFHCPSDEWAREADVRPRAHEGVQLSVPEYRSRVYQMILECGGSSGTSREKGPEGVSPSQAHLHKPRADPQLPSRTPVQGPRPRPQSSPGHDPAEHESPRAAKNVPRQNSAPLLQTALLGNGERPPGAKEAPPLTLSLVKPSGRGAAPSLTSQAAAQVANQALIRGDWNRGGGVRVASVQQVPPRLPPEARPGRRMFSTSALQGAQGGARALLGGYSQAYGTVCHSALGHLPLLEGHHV

[7] = target: kinases (KINOMEscan panel) (Homo sapiens, UniProt P42679)
[8] = target: kinases (KINOMEscan panel) (Homo sapiens, UniProt P23443)
[9] = target: kinases (KINOMEscan panel) (Homo sapiens, UniProt Q32MK0)
[10] = target: kinases (KINOMEscan panel) (Homo sapiens, UniProt P28482)
[11] = target: kinases (KINOMEscan panel) (Homo sapiens, UniProt Q13188)
[12] = target: kinases (KINOMEscan panel) (Homo sapiens, UniProt Q16620)
[13] = target: kinases (KINOMEscan panel) (Homo sapiens, UniProt Q9P289)
[14] = target: kinases (KINOMEscan panel) (Homo sapiens, UniProt Q15418)
Sequence of kinases (KINOMEscan panel) (Homo sapiens, UniProt Q15418) (Q15418 whole entry): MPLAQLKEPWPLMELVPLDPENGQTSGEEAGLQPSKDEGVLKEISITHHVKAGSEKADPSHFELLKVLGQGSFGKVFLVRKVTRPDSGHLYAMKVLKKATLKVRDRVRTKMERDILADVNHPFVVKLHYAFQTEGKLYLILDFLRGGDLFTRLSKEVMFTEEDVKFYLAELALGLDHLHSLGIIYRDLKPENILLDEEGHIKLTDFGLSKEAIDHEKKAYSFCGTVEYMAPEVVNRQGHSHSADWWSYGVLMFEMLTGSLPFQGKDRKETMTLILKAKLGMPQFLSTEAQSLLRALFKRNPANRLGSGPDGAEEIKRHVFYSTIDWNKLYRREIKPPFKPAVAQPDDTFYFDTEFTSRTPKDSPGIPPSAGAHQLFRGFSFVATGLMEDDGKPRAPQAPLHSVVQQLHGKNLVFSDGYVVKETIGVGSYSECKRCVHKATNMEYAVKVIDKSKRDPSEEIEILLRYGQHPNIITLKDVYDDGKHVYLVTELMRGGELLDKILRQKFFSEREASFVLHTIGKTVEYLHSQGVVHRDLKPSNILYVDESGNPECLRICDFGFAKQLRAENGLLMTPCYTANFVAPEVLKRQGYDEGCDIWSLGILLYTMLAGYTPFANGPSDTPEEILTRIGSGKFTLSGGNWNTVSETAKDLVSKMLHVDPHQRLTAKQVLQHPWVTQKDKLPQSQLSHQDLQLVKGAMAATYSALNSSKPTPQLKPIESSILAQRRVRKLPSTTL

[15] = target: kinases (KINOMEscan panel) (Homo sapiens, UniProt Q12852)
[16] = target: kinases (KINOMEscan panel) (Homo sapiens, UniProt P0C264)
Sequence of kinases (KINOMEscan panel) (Homo sapiens, UniProt P0C264) (P0C264 whole entry): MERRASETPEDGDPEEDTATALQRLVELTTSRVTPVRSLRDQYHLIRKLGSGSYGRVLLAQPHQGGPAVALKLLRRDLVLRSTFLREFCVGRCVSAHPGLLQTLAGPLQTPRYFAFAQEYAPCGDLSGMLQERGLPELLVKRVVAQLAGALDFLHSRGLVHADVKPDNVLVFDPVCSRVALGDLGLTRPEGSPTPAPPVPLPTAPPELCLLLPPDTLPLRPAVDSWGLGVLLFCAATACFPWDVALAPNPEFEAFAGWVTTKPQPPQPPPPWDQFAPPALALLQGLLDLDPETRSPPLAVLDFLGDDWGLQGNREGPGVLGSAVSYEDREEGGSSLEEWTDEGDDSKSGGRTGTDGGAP

[17] = target: kinases (KINOMEscan panel) (Homo sapiens, UniProt O43283)
[18] = target: kinases (KINOMEscan panel) (Homo sapiens, UniProt Q13882)
[19] = target: kinases (KINOMEscan panel) (Homo sapiens, UniProt P45983)
[20] = target: kinases (KINOMEscan panel) (Homo sapiens, UniProt Q92918)
[21] = target: kinases (KINOMEscan panel) (Homo sapiens, UniProt Q13043)
[22] = target: kinases (KINOMEscan panel) (Homo sapiens, UniProt P52564)
Sequence of kinases (KINOMEscan panel) (Homo sapiens, UniProt P52564) (P52564 whole entry): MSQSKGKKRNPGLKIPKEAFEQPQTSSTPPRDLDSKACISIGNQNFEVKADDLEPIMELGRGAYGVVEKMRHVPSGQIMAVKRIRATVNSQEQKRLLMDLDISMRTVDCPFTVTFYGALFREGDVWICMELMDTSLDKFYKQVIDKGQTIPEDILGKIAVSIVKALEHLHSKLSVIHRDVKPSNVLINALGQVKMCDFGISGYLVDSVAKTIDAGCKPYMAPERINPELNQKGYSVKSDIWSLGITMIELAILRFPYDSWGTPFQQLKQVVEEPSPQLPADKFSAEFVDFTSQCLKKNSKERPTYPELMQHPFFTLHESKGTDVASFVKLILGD

[23] = target: kinases (KINOMEscan panel) (Homo sapiens, UniProt P35968)
[24] = target: kinases (KINOMEscan panel) (Homo sapiens, UniProt Q9UK32)
Sequence of kinases (KINOMEscan panel) (Homo sapiens, UniProt Q9UK32) (Q9UK32 whole entry): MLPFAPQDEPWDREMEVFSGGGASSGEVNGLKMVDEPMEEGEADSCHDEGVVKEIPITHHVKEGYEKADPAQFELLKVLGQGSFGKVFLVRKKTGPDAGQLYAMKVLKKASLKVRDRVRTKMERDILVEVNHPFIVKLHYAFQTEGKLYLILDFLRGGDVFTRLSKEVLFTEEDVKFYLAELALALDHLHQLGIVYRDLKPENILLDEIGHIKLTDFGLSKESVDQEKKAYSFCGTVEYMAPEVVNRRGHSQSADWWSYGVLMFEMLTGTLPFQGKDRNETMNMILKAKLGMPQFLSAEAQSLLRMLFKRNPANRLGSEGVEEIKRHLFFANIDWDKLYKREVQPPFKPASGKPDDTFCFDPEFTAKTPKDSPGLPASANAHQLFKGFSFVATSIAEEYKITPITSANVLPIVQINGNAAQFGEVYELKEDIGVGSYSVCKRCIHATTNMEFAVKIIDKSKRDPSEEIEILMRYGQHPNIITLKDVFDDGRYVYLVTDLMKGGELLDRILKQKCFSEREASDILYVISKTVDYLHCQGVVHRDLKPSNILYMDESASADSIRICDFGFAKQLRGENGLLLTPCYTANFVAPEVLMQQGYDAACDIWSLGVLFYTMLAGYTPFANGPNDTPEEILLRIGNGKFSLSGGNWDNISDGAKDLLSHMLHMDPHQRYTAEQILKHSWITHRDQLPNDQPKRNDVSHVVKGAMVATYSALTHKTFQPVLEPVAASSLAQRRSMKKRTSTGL

[25] = target: kinases (KINOMEscan panel) (Homo sapiens, UniProt Q05397)
[26] = target: kinases (KINOMEscan panel) (Homo sapiens, UniProt O75676); conditions: NEW KINOMEscan
Sequence of kinases (KINOMEscan panel) (Homo sapiens, UniProt O75676) (O75676 whole entry): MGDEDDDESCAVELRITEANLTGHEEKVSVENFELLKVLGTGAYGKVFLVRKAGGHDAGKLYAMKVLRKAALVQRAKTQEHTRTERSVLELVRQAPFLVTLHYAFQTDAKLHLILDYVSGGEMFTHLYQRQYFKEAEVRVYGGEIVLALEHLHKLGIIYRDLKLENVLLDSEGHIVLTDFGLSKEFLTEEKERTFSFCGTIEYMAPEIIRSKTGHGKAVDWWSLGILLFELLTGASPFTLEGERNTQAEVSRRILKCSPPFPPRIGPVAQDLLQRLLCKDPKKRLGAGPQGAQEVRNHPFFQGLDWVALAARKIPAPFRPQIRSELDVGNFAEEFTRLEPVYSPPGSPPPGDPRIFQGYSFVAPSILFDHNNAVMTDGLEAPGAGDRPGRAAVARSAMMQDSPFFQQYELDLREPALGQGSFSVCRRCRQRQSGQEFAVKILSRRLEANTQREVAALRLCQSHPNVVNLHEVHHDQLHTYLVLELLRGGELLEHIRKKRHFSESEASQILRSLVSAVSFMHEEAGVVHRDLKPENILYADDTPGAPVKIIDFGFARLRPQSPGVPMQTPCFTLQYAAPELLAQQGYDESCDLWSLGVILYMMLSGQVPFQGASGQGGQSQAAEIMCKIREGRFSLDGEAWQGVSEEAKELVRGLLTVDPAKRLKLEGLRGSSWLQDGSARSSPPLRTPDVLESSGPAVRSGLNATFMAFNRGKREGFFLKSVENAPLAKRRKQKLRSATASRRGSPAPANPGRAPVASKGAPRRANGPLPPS

[27] = target: kinases (KINOMEscan panel) (Homo sapiens, UniProt Q8IY84)
[28] = target: kinases (KINOMEscan panel) (Homo sapiens, UniProt O60285)
[29] = target: kinases (KINOMEscan panel) (Homo sapiens, UniProt Q9Y2K2)
[30] = target: kinases (KINOMEscan panel) (Homo sapiens, UniProt Q02763)
[31] = target: kinases (KINOMEscan panel) (Homo sapiens, UniProt Q8NEB9)
[32] = target: kinases (KINOMEscan panel) (Homo sapiens, UniProt Q15831)
[33] = target: kinases (KINOMEscan panel) (Homo sapiens, UniProt Q9Y2H1)
[34] = target: kinases (KINOMEscan panel) (Homo sapiens, UniProt P07947)
[35] = target: kinases (KINOMEscan panel) (Homo sapiens, UniProt Q6P2M8)
[36] = target: kinases (KINOMEscan panel) (Homo sapiens, UniProt Q14289)
[37] = target: kinases (KINOMEscan panel) (Homo sapiens, UniProt P27361)
[38] = target: kinases (KINOMEscan panel) (Homo sapiens, UniProt O75582); conditions: NEW KINOMEscan
Sequence of kinases (KINOMEscan panel) (Homo sapiens, UniProt O75582) (O75582 whole entry): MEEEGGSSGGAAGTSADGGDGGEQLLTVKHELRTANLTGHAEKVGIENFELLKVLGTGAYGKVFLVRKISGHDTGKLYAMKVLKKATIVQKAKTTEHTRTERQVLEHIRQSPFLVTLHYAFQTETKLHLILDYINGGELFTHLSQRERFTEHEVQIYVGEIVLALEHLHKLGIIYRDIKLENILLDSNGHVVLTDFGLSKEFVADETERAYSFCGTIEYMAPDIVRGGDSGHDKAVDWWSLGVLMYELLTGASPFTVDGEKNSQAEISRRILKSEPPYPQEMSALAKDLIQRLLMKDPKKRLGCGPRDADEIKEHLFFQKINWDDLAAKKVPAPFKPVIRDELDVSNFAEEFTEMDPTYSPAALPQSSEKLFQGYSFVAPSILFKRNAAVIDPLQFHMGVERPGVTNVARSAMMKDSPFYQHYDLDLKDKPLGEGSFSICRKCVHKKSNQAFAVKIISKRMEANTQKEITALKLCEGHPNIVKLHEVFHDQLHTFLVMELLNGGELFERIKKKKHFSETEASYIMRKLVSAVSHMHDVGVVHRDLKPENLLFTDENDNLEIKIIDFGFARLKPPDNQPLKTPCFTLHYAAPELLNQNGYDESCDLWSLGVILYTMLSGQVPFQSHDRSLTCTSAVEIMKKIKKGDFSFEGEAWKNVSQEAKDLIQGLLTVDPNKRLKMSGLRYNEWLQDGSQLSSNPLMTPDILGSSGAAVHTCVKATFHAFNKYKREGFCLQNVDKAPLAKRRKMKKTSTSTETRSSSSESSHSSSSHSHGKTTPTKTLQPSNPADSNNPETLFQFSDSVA

[39] = target: kinases (KINOMEscan panel) (Homo sapiens, UniProt P45985)
[40] = target: kinases (KINOMEscan panel) (Homo sapiens, UniProt P08581)

Sequence of kinases (KINOMEscan panel) (Homo sapiens, UniProt Q15349) (Q15349 whole entry): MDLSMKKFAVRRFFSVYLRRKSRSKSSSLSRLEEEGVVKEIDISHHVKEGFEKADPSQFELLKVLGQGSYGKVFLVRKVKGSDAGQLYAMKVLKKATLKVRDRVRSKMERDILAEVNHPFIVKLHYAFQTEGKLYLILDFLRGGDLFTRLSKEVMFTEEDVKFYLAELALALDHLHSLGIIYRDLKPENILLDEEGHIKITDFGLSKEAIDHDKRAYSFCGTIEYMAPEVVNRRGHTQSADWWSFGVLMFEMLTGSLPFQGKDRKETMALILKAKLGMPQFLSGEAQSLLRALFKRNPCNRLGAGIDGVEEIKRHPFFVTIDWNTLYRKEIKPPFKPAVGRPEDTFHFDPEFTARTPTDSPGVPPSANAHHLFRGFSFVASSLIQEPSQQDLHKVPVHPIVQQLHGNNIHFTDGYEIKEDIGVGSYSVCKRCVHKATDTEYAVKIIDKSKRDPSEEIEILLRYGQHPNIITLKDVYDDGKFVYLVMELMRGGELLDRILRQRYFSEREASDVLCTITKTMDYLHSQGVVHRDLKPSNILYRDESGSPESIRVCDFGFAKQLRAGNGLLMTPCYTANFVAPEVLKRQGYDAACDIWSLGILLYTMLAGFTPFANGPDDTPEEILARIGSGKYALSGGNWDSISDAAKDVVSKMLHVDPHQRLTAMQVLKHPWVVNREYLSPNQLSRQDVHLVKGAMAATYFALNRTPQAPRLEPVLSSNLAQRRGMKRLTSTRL

Cc1cccc(-c2nc(N(C)c3ccc4ncsc4c3)c3ccccc3n2)n1 [NK-161]
KINOMEscan RPS6KA2/RSK3(Kin.Dom.1-N-terminal) [1]: 0
KINOMEscan RPS6KA2/RSK3(Kin.Dom.2-C-terminal) [1]: 16
KINOMEscan MAP3K5/ASK1 [2]: 0
KINOMEscan STK32A/YANK1 [3]: 0
KINOMEscan NUAK2/SNARK [4]: 15
KINOMEscan MAPK4/ERK4 [5]: 6
KINOMEscan MAPK15/ERK8 [6]: 0
KINOMEscan MATK/CTK [7]: 8
KINOMEscan RPS6KB1/S6K1 [8]: 0
KINOMEscan MYLK/MLCK [9]: 8
KINOMEscan MAPK1/ERK2 [10]: 6
KINOMEscan STK3/MST2 [11]: 0
KINOMEscan NTRK2/TRKB [12]: 45
KINOMEscan STK26/MST4 [13]: 5
KINOMEscan RPS6KA1/RSK1(Kin.Dom.1-N-terminal) [14]: 9
KINOMEscan RPS6KA1/RSK1(Kin.Dom.2-C-terminal) [14]: 34
KINOMEscan MAP3K12/DLK [15]: 0
KINOMEscan SBK3/SgK110 [16]: 0
KINOMEscan MAP3K13/LZK [17]: 22
KINOMEscan PTK6/BRK [18]: 0
KINOMEscan MAPK8/JNK1 [19]: 0
KINOMEscan MAP4K1/HPK1 [20]: 0
KINOMEscan STK4/MST1 [21]: 17
KINOMEscan MAP2K6/MEK6 [22]: 12
KINOMEscan KDR/VEGFR2 [23]: 4
KINOMEscan RPS6KA6/RSK4(Kin.Dom.1-N-terminal) [24]: 8
KINOMEscan RPS6KA6/RSK4(Kin.Dom.2-C-terminal) [24]: 4
KINOMEscan PTK2/FAK [25]: 0
KINOMEscan RPS6KA4(Kin.Dom.1-N-terminal) ([26]; RPS6KA4(Kin.Dom.1-N-terminal)): 0
KINOMEscan RPS6KA4(Kin.Dom.2-C-terminal) ([26]; RPS6KA4(Kin.Dom.2-C-terminal)): 0
KINOMEscan NIM1K/NIM1 [27]: 12
KINOMEscan NUAK1/ARK5 [28]: 0
KINOMEscan SIK3/QSK [29]: 0
KINOMEscan TEK/TIE2 [30]: 13
KINOMEscan PIK3C3/VPS34 [31]: 0
KINOMEscan STK11/LKB1 [32]: 0
KINOMEscan STK38L/NDR2 [33]: 0
KINOMEscan YES1/YES [34]: 0
KINOMEscan PNCK/CAMK1B [35]: 0
KINOMEscan PTK2B/PYK2 [36]: 9
KINOMEscan MAPK3/ERK1 [37]: 14
KINOMEscan RPS6KA5(Kin.Dom.1-N-terminal) [38]: 21
KINOMEscan RPS6KA5(Kin.Dom.2-C-terminal) ([38]; kinase RPS6KA5(Kin.Dom.2-C-terminal)): 0
KINOMEscan MAP2K4/MEK4 [39]: 0
KINOMEscan SLTM/MET [40]: 11
